Assay results from ChEMBL document CHEMBL1201862, “PubChem BioAssay data set” (2004).
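All cell lines were grown in 96-well plates and treated with compound for 48 hours. GI50 is the concentration that inhibits growth by half.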 Calls of active or inactive are those of the source. No stated cut-off is given here; in the data, active = GI50 up to about 1.1 µM and inactive = higher.

Tests used:
Assay in all cases: NCI tumour cell line growth inhibition, 48 h
HOP-92 = tested on: HOP-92
SF-268 = tested on: SF-268
OVCAR-5 = tested on: OVCAR-5
OVCAR-8 = tested on: OVCAR-8
SK-OV-3 = tested on: SK-OV-3
UACC-257 = tested on: UACC-257
SN12C = tested on: SN12C
HOP-62 = tested on: HOP-62
EKVX = tested on: EKVX
PC-3 = tested on: PC-3
KM12 = tested on: KM12
RPMI-8226 = tested on: RPMI-8226
MDA-N = tested on: MDA-N
RXF 393 = tested on: RXF 393
SNB-75 = tested on: SNB-75
CAKI-1 = tested on: CAKI-1
NCI/ADR-RES = tested on: NCI/ADR-RES
HL-60 = tested on: HL-60
M14 = tested on: M14
A498 = tested on: A498

Measured: GI50

Cc1cccc(C)c1NC(=S)NC=C1C(=O)c2ccccc2C1=O
inactive: HOP-92 12.5 µM | SF-268 7.52 µM | OVCAR-5 39.7 µM | OVCAR-8 1.44 µM | SK-OV-3 18.4 µM | UACC-257 12.4 µM | SN12C 9.42 µM | HOP-62 23.2 µM | EKVX 9.82 µM | PC-3 3.76 µM | KM12 2.83 µM | RPMI-8226 3.07 µM | MDA-N 9.14 µM | RXF 393 4.3 µM | SNB-75 3.52 µM | CAKI-1 17.8 µM | NCI/ADR-RES 16.8 µM | HL-60 2.45 µM | M14 17.5 µM

COc1cc(-c2oc3c(OC)cc(OC)c(O)c3c(=O)c2OC)cc(OC)c1OC
inactive: HOP-92 15.6 µM | SF-268 6.95 µM | OVCAR-5 > 100 µM | OVCAR-8 5.21 µM | SK-OV-3 3.29 µM | SN12C > 100 µM | HOP-62 2.06 µM | EKVX > 100 µM | PC-3 9.57 µM | KM12 > 100 µM | RPMI-8226 > 100 µM | MDA-N > 100 µM | RXF 393 8.28 µM | SNB-75 1.73 µM | CAKI-1 14.4 µM | NCI/ADR-RES 5.46 µM | HL-60 > 100 µM | M14 > 100 µM

NC(=O)CCC(CCC(N)=O)(CCC(N)=O)[N+](=O)[O-]
inactive: HOP-92 > 100 µM | SF-268 > 100 µM | OVCAR-5 > 100 µM | OVCAR-8 > 100 µM | SK-OV-3 > 100 µM | UACC-257 > 100 µM | SN12C > 100 µM | EKVX > 100 µM | PC-3 > 100 µM | KM12 > 100 µM | RPMI-8226 > 100 µM | MDA-N > 100 µM | RXF 393 > 100 µM | SNB-75 > 100 µM | CAKI-1 > 100 µM | NCI/ADR-RES > 100 µM | HL-60 > 100 µM | M14 > 100 µM

CC1=NC(=Cc2cccc(Cl)c2)C(=O)N1n1c(-c2ccccc2)nc2ccccc2c1=O
inactive: A498 26.4 µM | SF-268 65.3 µM | OVCAR-8 43.4 µM | SK-OV-3 37.8 µM | UACC-257 28.6 µM | SN12C 40.4 µM | HOP-62 24.5 µM | EKVX 21.2 µM | PC-3 31.3 µM | KM12 31.6 µM | RPMI-8226 30.2 µM | MDA-N 30.4 µM | SNB-75 35.9 µM | CAKI-1 22.8 µM | HL-60 22.8 µM | M14 31.4 µM

Nc1ccc(C23CC4CC(C2)CC(c2ccc(N)cc2)(C4)C3)cc1
inactive: A498 15.7 µM | HOP-92 41.8 µM | SF-268 45.2 µM | OVCAR-5 27.7 µM | OVCAR-8 85.1 µM | UACC-257 75.5 µM | SN12C 25.1 µM | HOP-62 60 µM | EKVX 36.6 µM | KM12 > 100 µM | RPMI-8226 10.7 µM | MDA-N 37.7 µM | CAKI-1 > 100 µM | NCI/ADR-RES 56.8 µM | HL-60 31 µM | M14 37.2 µM

O=C1[C@@H]2C[C@@H](O)CN2C(=O)c2ccccc2N1CCCO
inactive: A498 > 100 µM | HOP-92 > 100 µM | SF-268 > 100 µM | OVCAR-5 > 100 µM | OVCAR-8 > 100 µM | SK-OV-3 > 100 µM | UACC-257 > 100 µM | SN12C > 100 µM | HOP-62 > 100 µM | EKVX > 100 µM | PC-3 > 100 µM | KM12 > 100 µM | RPMI-8226 > 100 µM | MDA-N > 100 µM | SNB-75 > 100 µM | NCI/ADR-RES > 100 µM | M14 > 100 µM

Cc1ccc(/C=C2\NC(=S)N(CN3CCOCC3)C2=O)cc1
inactive: A498 > 100 µM | HOP-92 > 100 µM | SF-268 > 100 µM | OVCAR-5 > 100 µM | OVCAR-8 > 100 µM | SK-OV-3 > 100 µM | UACC-257 > 100 µM | SN12C > 100 µM | HOP-62 > 100 µM | EKVX > 100 µM | PC-3 > 100 µM | KM12 > 100 µM | RPMI-8226 > 100 µM | MDA-N > 100 µM | SNB-75 > 100 µM | NCI/ADR-RES > 100 µM | M14 > 100 µM

O=[N+]([O-])c1cccc2c(/N=N/c3ccc4ccccc4c3O)c(O)cc(S(=O)(=O)O)c12
inactive: HOP-92 55.7 µM | SF-268 23.6 µM | OVCAR-5 34.8 µM | OVCAR-8 21.1 µM | SK-OV-3 76.2 µM | UACC-257 31.8 µM | SN12C 64.7 µM | HOP-62 18.2 µM | EKVX 79.3 µM | PC-3 18.8 µM | KM12 55.6 µM | RPMI-8226 > 100 µM | MDA-N 31.1 µM | RXF 393 38.4 µM | SNB-75 44 µM | CAKI-1 2 µM | NCI/ADR-RES 17 µM | HL-60 4.21 µM | M14 21.6 µM

C=C1[C@@H](OC(C)=O)[C@H]2[C@@H](OC(C)=O)[C@@](C)(OC(C)=O)C[C@]2(OC(C)=O)C(=O)[C@@H](C)/C=C/C(C)(C)C(=O)C[C@H]1OC(C)=O
inactive: HOP-92 79.3 µM | OVCAR-5 > 100 µM | OVCAR-8 > 100 µM | SK-OV-3 > 100 µM | UACC-257 > 100 µM | SN12C > 100 µM | HOP-62 > 100 µM | EKVX 83.9 µM | PC-3 > 100 µM | KM12 > 100 µM | RPMI-8226 > 100 µM | MDA-N > 100 µM | RXF 393 > 100 µM | SNB-75 > 100 µM | CAKI-1 > 100 µM | NCI/ADR-RES 88.1 µM | M14 > 100 µM

Cc1cc(-c2nc3ccccc3s2)ccc1NC(=O)[C@@H](N)CCCCN
inactive: A498 3.83 µM | HOP-92 16.1 µM | SF-268 6.07 µM | OVCAR-5 12.5 µM | OVCAR-8 6.78 µM | SK-OV-3 13.5 µM | UACC-257 18.4 µM | SN12C 16.8 µM | HOP-62 11.8 µM | EKVX 12.2 µM | PC-3 14.3 µM | KM12 2.82 µM | MDA-N 5.04 µM | RXF 393 3.89 µM | SNB-75 3.68 µM | CAKI-1 7.5 µM | NCI/ADR-RES 15.8 µM | M14 2.47 µM

O=C(O)CC(Cc1ccccc1Cl)C(=O)O (stereo unspecified)
inactive: A498 > 100 µM | HOP-92 > 100 µM | SF-268 > 100 µM | OVCAR-5 > 100 µM | OVCAR-8 > 100 µM | SK-OV-3 > 100 µM | UACC-257 > 100 µM | SN12C > 100 µM | HOP-62 > 100 µM | EKVX > 100 µM | PC-3 > 100 µM | KM12 > 100 µM | RPMI-8226 > 100 µM | MDA-N > 100 µM | RXF 393 > 100 µM | CAKI-1 > 100 µM | NCI/ADR-RES > 100 µM | M14 > 100 µM

COC(=O)[C@@H](NS(=O)(=O)CC12CCC(CC1)C2(C)C)C(C)(C)C
inactive: A498 > 100 µM | HOP-92 > 100 µM | SF-268 > 100 µM | OVCAR-5 > 100 µM | OVCAR-8 > 100 µM | SK-OV-3 > 100 µM | UACC-257 > 100 µM | SN12C > 100 µM | EKVX > 100 µM | KM12 > 100 µM | MDA-N > 100 µM | RXF 393 44.4 µM | SNB-75 > 100 µM | CAKI-1 > 100 µM | NCI/ADR-RES > 100 µM | HL-60 > 100 µM | M14 > 100 µM

COc1ccc(C(=O)N2CCN(c3ccc4c(c3)OCC(=O)N4)CC2)cc1OC
inactive: HOP-92 > 100 µM | SF-268 > 100 µM | OVCAR-5 52 µM | OVCAR-8 > 100 µM | SK-OV-3 > 100 µM | UACC-257 > 100 µM | SN12C > 100 µM | HOP-62 > 100 µM | EKVX > 100 µM | PC-3 > 100 µM | KM12 > 100 µM | RPMI-8226 > 100 µM | MDA-N > 100 µM | SNB-75 > 100 µM | NCI/ADR-RES > 100 µM | HL-60 > 100 µM | M14 > 100 µM

O=C(O)CCCc1nc2c(n1-c1ccccc1)C(=O)c1ccccc1C2=O
inactive: A498 > 100 µM | HOP-92 49 µM | SF-268 38.1 µM | OVCAR-5 > 100 µM | OVCAR-8 53.5 µM | SK-OV-3 > 100 µM | UACC-257 33.2 µM | SN12C 52.5 µM | EKVX 62.8 µM | KM12 31.3 µM | RPMI-8226 40.7 µM | MDA-N 43.5 µM | SNB-75 43.5 µM | CAKI-1 > 100 µM | NCI/ADR-RES > 100 µM | HL-60 37.4 µM | M14 19.1 µM

CCOC(=O)N/N=C(/N)c1cccc(Br)c1
inactive: SF-268 > 100 µM | OVCAR-5 > 100 µM | OVCAR-8 > 100 µM | SK-OV-3 > 100 µM | UACC-257 > 100 µM | SN12C > 100 µM | HOP-62 > 100 µM | EKVX 83 µM | PC-3 > 100 µM | KM12 > 100 µM | MDA-N > 100 µM | RXF 393 > 100 µM | SNB-75 > 100 µM | CAKI-1 > 100 µM | NCI/ADR-RES > 100 µM | HL-60 > 100 µM | M14 > 100 µM
